Assay [1] has as its target Prostaglandin E2 receptor EP4 subtype (Homo sapiens, UniProt P35408). Nature of the assay: Selectivity interaction (Eurofins-Panlabs radioligand binding assay ) EUB0000293b PTGER4. Particulars: at 10 µM.
Assay [2] deals with 5-hydroxytryptamine receptor 3A (Homo sapiens) (UniProt P46098). Description: Selectivity interaction (GPCR panel (PDSP screen)) EUB0000293b HTR3A. Particulars: at 10 µM.
The target of the next assay is Histamine H1 receptor (Homo sapiens, UniProt P35367). Nature of the assay: Selectivity interaction (GPCR panel (PDSP screen)) EUB0000251b HRH1. Particulars: at 10 µM.
In assay [3] the target is T1, Sigma intracellular receptor 2 (Homo sapiens, UniProt Q5BJF2). Description: Selectivity interaction (GPCR panel (PDSP screen)) EUB0000251b TMEM97. Particulars: at 10 µM.
T1 sequence (Q5BJF2 whole entry, canonical isoform): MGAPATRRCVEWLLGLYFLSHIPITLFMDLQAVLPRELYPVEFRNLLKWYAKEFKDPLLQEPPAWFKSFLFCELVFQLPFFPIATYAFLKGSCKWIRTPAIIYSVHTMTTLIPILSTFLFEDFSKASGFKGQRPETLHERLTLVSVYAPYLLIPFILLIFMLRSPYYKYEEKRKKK
In assay [4] the test system is Phosphatidylinositol 4,5-bisphosphate 3-kinase catalytic subunit alpha isoform (Homo sapiens), P42336 [E542K]. Nature of the assay: (§1) Selectivity interaction (KinomeScan (DiscoverX)) EUB0000251b PIK3CA. Particulars: at 1 µM.
Phosphatidylinositol 4,5-bisphosphate 3-kinase catalytic subunit alpha isoform (Homo sapiens), P42336 [E542K], sequence (P42336 whole entry E542K, canonical isoform): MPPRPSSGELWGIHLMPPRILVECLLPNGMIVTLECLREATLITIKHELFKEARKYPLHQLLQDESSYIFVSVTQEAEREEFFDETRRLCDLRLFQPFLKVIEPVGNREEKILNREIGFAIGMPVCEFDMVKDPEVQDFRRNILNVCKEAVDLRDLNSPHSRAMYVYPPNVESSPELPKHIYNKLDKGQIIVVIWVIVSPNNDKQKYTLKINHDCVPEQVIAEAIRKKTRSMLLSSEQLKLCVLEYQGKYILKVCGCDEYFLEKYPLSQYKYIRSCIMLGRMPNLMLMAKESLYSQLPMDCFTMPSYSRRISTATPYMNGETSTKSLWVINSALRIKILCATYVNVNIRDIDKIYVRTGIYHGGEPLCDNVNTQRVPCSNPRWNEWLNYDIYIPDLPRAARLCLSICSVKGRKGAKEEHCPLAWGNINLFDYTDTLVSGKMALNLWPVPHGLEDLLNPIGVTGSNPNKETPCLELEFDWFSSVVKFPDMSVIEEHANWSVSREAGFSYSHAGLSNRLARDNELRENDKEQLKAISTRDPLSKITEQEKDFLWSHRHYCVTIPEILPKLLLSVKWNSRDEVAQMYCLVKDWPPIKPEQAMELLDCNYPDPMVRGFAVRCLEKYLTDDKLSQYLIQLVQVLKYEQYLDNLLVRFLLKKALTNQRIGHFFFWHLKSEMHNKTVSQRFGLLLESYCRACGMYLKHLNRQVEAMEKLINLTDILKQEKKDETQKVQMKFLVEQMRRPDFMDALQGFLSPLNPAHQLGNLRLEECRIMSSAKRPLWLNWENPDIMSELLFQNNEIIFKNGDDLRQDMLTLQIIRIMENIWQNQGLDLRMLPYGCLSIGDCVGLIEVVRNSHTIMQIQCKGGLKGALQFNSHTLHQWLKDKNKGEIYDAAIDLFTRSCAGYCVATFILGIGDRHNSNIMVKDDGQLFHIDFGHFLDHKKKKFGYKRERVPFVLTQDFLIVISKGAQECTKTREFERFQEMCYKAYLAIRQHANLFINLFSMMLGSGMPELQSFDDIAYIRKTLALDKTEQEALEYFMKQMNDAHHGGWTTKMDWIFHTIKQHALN
Assay [5] deals with Phosphatidylinositol 4,5-bisphosphate 3-kinase catalytic subunit alpha isoform (Homo sapiens), P42336 [Q546K]. The description is as §1. Particulars: at 1 µM.
Phosphatidylinositol 4,5-bisphosphate 3-kinase catalytic subunit alpha isoform (Homo sapiens), P42336 [Q546K], sequence (P42336 whole entry Q546K, canonical isoform): as the sequence (P42336 whole entry E542K, canonical isoform) above, with K542E, Q546K counted along it
Assay [6] concerns the target Serine/threonine-protein kinase SBK1 (Homo sapiens) (UniProt Q52WX2). Nature of the assay: Selectivity interaction (KinomeScan (DiscoverX)) EUB0000708a SBK1. Particulars: at 1 µM.
In assay [7] the target is Serine/threonine-protein kinase ULK3 (Homo sapiens) (UniProt Q6PHR2). Nature of the assay: Selectivity interaction (KinomeScan (DiscoverX)) EUB0000708a ULK3. Particulars: at 1 µM.
In assay [8] the target is 5-hydroxytryptamine receptor 2C (Homo sapiens) (UniProt P28335). Nature of the assay: Selectivity interaction (GPCR panel (PDSP screen)) EUB0000737a HTR2C. Particulars: at 10 µM.
5-hydroxytryptamine receptor 2C (Homo sapiens), sequence (P28335 whole entry): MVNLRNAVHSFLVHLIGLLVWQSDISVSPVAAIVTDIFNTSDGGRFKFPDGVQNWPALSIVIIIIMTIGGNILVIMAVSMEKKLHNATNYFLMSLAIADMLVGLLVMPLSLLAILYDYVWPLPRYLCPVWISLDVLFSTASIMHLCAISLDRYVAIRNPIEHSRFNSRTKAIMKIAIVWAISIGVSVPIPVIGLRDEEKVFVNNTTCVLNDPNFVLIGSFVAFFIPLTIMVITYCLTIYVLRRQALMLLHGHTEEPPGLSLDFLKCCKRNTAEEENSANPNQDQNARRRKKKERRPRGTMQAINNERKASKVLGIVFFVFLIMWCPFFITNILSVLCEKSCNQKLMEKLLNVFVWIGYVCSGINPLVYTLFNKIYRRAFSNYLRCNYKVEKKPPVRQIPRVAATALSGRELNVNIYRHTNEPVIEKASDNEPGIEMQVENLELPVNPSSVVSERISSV
Assay [9] has as its target T2, Muscarinic acetylcholine receptor M2 (Homo sapiens) (UniProt P08172).
T2 sequence (whole entry): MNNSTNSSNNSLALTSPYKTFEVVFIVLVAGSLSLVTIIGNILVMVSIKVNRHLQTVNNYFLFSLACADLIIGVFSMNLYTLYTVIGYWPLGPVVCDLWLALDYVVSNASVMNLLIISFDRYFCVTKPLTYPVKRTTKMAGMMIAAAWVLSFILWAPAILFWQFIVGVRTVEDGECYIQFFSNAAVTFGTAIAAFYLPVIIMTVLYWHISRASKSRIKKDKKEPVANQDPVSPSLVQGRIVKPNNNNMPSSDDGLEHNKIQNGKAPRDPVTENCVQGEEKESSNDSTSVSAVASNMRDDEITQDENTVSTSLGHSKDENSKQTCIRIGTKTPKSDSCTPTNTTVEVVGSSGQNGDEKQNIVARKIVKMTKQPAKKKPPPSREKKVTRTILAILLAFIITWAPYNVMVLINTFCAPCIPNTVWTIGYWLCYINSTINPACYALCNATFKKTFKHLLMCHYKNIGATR
Description: Selectivity interaction (GPCR panel (PDSP screen)) EUB0000333a CHRM2. Particulars: at 10 µM.

Assay [10] addresses P2Y purinoceptor 2 (Homo sapiens) (UniProt P41231). Nature of the assay: Selectivity interaction (GPCR panel (Eurofins-Cerep)) EUB0000333a P2RY2. Particulars: at 10 µM.
Assay [11] addresses Serine/threonine-protein kinase ICK (Homo sapiens) (UniProt Q9UPZ9). Description: Selectivity interaction (KinomeScan (DiscoverX)) EUB0000333a ICK. Particulars: at 1 µM.
Assay [12] addresses eIF-2-alpha kinase GCN2 (Homo sapiens) (UniProt Q9P2K8). Description: Selectivity interaction (KinomeScan (DiscoverX)) EUB0000333a EIF2AK4. Particulars: at 1 µM.
In assay [13] the target is T1, Sigma intracellular receptor 2. Nature of the assay: Selectivity interaction (GPCR panel (PDSP screen)) EUB0000333a TMEM97. Particulars: at 10 µM.
The target in assay [14] is 5-hydroxytryptamine receptor 2A (Homo sapiens, UniProt P28223). Nature of the assay: Selectivity interaction (Lead profiling screen (Eurofins, panel of GPCRs, transporters, nuclear receptors, and other enzymes)) EUB0000320b HTR2A. Particulars: at 10 µM.
5-hydroxytryptamine receptor 2A, sequence (P28223 whole entry): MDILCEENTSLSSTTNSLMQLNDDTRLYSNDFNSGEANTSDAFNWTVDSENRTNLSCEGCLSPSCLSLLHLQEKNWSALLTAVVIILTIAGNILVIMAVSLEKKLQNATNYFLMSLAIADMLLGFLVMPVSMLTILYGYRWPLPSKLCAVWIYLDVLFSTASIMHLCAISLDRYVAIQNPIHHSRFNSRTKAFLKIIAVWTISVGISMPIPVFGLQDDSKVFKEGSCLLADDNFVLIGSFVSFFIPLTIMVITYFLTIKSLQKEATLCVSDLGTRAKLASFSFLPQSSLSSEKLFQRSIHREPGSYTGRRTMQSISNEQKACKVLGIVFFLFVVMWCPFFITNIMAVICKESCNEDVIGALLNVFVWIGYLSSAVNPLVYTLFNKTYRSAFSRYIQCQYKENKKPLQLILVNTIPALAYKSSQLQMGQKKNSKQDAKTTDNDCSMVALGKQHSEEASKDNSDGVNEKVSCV
For assay [15], the target named is 5-hydroxytryptamine receptor 2B (Homo sapiens, UniProt P41595). Description: Selectivity interaction (Lead profiling screen (Eurofins, panel of GPCRs, transporters, nuclear receptors, and other enzymes)) EUB0000320b HTR2B. Particulars: at 10 µM.
5-hydroxytryptamine receptor 2B, sequence (P41595 whole entry): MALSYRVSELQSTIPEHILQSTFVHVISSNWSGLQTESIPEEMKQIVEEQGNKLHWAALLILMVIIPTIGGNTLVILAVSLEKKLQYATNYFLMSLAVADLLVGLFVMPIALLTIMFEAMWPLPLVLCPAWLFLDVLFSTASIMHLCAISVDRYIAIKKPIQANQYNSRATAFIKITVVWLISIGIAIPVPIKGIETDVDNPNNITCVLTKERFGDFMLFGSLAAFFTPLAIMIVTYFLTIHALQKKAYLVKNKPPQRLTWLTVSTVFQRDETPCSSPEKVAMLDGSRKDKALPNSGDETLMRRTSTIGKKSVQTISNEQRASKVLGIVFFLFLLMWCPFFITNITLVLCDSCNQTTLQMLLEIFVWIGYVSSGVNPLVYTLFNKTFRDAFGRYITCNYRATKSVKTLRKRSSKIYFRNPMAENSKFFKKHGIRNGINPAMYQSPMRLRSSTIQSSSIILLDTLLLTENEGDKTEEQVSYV
Assay [16] has as its target 5-hydroxytryptamine receptor 2C (Homo sapiens) (UniProt P28335). Nature of the assay: Selectivity interaction (Lead profiling screen (Eurofins, panel of GPCRs, transporters, nuclear receptors, and other enzymes)) EUB0000320b HTR2C. Particulars: at 10 µM.
Assay [17] concerns the target T3, Alpha-1A adrenergic receptor (Homo sapiens) (UniProt P35348).
T3 sequence (whole entry): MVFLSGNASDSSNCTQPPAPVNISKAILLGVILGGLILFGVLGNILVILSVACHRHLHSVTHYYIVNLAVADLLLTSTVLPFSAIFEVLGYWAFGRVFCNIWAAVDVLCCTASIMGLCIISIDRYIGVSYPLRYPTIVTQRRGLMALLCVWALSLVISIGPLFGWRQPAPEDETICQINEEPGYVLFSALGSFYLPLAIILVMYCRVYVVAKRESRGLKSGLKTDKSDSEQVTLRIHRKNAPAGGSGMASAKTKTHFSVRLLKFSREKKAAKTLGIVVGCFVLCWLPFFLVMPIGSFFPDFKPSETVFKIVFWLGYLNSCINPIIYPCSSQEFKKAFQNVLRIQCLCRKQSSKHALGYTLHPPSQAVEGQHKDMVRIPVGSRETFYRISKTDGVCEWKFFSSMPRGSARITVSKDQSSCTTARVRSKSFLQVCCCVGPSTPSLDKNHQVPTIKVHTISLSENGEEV
Description: Selectivity interaction (Lead profiling screen (Eurofins, panel of GPCRs, transporters, nuclear receptors, and other enzymes)) EUB0000320b ADRA1A. Particulars: at 10 µM.

For assay [18], the target named is Kappa-type opioid receptor (Homo sapiens, UniProt P41145). Nature of the assay: Selectivity interaction (Lead profiling screen (Eurofins, panel of GPCRs, transporters, nuclear receptors, and other enzymes)) EUB0000320b OPRK1. Particulars: at 10 µM.
Kappa-type opioid receptor, sequence (P41145 whole entry): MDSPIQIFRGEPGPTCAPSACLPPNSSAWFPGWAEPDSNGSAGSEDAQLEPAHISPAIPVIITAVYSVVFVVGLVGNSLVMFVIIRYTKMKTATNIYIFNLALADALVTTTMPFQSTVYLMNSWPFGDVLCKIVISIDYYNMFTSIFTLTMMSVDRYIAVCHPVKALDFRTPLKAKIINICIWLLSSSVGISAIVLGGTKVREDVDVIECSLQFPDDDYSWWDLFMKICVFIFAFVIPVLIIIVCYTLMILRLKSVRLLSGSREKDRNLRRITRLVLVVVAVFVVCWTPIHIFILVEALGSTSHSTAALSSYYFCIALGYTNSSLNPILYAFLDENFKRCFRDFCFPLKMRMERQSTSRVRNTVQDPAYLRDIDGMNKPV
Assay [19] deals with Serine/threonine-protein kinase 33 (Homo sapiens, UniProt Q9BYT3). Nature of the assay: Selectivity interaction (KinomeScan (DiscoverX)) EUB0000320b STK33. Particulars: at 1 µM.
Serine/threonine-protein kinase 33, sequence (Q9BYT3 whole entry, looked up): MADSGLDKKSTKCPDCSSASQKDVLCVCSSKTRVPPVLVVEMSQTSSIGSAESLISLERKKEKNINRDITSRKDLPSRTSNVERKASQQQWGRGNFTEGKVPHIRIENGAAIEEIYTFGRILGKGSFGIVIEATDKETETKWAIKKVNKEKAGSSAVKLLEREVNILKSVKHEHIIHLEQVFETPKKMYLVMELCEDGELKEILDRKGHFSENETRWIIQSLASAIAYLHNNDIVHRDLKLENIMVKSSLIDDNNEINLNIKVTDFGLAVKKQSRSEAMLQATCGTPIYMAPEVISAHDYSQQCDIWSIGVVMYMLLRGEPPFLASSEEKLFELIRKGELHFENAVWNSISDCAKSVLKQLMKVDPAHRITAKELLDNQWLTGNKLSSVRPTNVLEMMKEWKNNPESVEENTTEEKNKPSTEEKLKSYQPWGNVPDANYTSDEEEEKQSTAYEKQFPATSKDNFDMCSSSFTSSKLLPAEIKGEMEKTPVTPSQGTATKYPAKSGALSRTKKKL
The target in assay [20] is Casein kinase II subunit alpha' (Homo sapiens) (UniProt P19784). Nature of the assay: Selectivity interaction (Kinase panel (Eurofins)) EUB0000320b CSNK2A2. Particulars: at 1 µM.
Casein kinase II subunit alpha' (Homo sapiens), sequence (P19784 whole entry, looked up): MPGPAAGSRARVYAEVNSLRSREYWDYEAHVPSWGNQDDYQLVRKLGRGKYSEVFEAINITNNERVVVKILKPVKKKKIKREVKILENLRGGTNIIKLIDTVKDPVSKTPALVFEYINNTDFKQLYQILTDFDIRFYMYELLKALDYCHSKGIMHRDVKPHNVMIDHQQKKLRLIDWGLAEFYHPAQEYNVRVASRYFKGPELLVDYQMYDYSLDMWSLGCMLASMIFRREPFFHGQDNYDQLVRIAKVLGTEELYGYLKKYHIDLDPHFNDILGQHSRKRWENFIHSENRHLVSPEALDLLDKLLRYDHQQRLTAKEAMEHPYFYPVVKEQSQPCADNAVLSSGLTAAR
For assay [21], the target named is T4, Myosin-IIIb (Homo sapiens) (UniProt Q8WXR4).
T4 sequence (whole entry): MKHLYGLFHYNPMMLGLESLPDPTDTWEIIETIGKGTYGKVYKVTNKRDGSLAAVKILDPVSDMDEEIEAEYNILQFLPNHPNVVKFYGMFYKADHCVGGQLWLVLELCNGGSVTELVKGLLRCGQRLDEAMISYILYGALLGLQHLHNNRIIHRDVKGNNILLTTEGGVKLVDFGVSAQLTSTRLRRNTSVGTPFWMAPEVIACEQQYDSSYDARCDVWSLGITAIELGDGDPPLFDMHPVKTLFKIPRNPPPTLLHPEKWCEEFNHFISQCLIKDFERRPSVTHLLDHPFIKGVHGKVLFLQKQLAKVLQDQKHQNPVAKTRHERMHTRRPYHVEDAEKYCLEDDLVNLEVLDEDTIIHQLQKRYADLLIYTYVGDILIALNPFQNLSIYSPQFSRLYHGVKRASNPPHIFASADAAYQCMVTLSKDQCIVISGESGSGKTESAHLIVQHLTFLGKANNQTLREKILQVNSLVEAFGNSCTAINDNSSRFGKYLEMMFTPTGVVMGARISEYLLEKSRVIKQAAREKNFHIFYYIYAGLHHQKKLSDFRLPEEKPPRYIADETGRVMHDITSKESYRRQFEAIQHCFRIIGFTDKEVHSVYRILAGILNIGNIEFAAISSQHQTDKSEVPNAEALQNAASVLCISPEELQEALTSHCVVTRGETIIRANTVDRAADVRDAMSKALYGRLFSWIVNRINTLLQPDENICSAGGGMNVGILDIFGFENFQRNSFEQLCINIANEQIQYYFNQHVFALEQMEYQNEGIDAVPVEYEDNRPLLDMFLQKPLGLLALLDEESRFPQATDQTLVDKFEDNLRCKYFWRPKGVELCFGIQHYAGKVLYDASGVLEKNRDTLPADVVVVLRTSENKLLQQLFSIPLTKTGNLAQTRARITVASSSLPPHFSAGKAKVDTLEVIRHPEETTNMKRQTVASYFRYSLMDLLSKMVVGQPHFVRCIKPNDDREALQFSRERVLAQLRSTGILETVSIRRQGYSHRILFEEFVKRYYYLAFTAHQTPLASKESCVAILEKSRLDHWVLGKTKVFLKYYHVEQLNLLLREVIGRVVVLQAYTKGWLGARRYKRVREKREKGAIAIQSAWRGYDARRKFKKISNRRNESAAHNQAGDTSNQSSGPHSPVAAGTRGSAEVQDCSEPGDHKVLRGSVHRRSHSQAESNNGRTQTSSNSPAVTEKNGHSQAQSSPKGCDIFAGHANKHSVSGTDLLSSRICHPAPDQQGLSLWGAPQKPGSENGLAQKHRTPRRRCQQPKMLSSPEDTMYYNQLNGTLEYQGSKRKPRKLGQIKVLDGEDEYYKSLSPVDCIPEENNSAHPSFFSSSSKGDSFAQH
Description: Selectivity interaction (KinomeScan (DiscoverX)) EUB0000320b MYO3B. Particulars: at 1 µM.

Assay [22] deals with Receptor-type tyrosine-protein kinase FLT3 (Homo sapiens), P36888 [UNDEFINED MUTATION]. Nature of the assay: Selectivity interaction (KinomeScan (DiscoverX)) EUB0000320b FLT3. Particulars: at 1 µM.
Assay [23] concerns the target T5, Cytoplasmic tyrosine-protein kinase BMX (Homo sapiens) (UniProt P51813).
T5 sequence (whole entry): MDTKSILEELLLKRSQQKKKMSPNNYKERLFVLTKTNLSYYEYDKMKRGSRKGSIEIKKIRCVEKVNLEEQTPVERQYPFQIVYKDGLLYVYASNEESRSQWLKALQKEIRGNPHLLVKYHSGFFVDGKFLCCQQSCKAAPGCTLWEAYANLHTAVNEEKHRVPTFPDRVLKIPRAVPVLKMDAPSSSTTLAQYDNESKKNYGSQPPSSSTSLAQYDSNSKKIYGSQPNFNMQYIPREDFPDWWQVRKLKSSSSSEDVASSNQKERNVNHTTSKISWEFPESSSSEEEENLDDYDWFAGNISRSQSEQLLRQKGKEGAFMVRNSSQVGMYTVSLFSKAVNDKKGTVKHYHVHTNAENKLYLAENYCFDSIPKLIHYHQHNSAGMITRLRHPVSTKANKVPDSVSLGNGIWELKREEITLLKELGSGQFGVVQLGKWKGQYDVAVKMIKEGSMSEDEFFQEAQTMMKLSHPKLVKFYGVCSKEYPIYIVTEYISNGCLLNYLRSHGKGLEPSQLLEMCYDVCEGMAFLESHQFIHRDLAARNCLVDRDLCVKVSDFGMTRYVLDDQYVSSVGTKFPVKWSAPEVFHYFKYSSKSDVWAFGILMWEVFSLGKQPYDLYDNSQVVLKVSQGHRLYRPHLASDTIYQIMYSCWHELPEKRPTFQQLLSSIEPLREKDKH
Description: Selectivity interaction (KinomeScan (DiscoverX)) EUB0000320b BMX. Particulars: at 1 µM.

Molecules are shown by their SMILES.

In ChEMBL document CHEMBL5212743, “Selectivity Literature for EUbOPEN Chemogenomics Library wave 3” (2023) one finds % of inhibition, % of control and inhibition data, which are given here for six compounds.

As a reminder, the inhibition is the share of the control response that was lost under treatment. The low end stands for a response near the control, the high end for a response far below the control.

P2Y purinoceptor 2 (Homo sapiens), sequence (P41231 whole entry): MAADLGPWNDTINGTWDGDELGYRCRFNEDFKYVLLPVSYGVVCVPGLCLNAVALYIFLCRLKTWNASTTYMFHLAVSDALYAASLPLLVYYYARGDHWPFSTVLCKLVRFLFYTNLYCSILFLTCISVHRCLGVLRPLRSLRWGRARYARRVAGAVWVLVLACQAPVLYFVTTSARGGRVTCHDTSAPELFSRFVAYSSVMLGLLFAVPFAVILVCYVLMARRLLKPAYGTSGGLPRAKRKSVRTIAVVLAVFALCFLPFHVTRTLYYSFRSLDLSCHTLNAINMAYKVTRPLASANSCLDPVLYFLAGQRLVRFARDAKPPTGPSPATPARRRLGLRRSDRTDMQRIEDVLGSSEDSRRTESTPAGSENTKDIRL
5-hydroxytryptamine receptor 3A (Homo sapiens), sequence (P46098 whole entry): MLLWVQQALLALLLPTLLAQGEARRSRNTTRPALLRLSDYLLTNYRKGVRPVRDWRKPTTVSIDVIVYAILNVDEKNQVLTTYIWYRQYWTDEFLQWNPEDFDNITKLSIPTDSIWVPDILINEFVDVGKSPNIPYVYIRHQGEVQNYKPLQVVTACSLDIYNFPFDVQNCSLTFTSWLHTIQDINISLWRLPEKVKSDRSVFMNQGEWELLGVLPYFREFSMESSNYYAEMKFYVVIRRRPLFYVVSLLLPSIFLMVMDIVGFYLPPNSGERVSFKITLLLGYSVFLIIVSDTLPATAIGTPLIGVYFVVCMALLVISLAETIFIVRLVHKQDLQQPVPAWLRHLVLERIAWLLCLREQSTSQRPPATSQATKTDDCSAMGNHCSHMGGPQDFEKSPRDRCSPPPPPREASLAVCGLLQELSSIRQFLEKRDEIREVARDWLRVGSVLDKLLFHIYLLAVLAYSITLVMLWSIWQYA

On to `CC1=C(C#N)C(c2ccc3[nH]nc(C)c3c2)C(C#N)=C(C)N1`, for which, in assay [1], the % of inhibition was found to be 19%. Besides, the % of control in assay [2] is 33%.

`Cc1c(NC(=O)c2cc(C(N)=O)nc3cc(F)ccc23)c(C(F)(F)F)nn1Cc1ccc(C(C)(C)C)cc1`: the % of inhibition was found to be 46% at Histamine H1 receptor and 41% in [3]. The % of control in [4] amounted to 43%; in assay [5], 32%.

With `Cc1nc(C2CCN(C(=O)c3ccc(OC(F)(F)F)cc3N)CC2)c2ncc(N3CCN(C)CC3)cc2n1`, the values for the % of control in assay [6] and in [7] were 40% and 46%, respectively.

With `CC(=O)C1=C(C)N(c2cccc(C(F)(F)F)c2)C(=O)N[C@H]1c1ccc(C#N)nc1`, the % of inhibition in assay [8] was determined as 29%.

In the case of `Cc1noc([C@H]2C[C@@H](c3ccc(C(F)(F)F)cc3)CN(C(=O)N3CCS(=O)(=O)C3)C2)n1`, the inhibition in assay [9] came out at 39%; in assay [10], 29%; in assay [13], 42%. Also, the values for the % of control in assay [11] and in assay [12] were 62% and 28%, respectively.

Consider `CNCc1ccccc1-c1csc([C@@H](C)Nc2nc(C)nc3cc(OC)c(OC)cc23)c1`, for which the % of inhibition was 110% in [14]; 100% in assay [15]; 104% in assay [16]; 106% in assay [17]; 105% in [18]. Besides, the % of control in [19] amounted to 45%; in assay [20] it was 67%; in assay [21], 47%; in assay [22], 48%; in assay [23], 49%.
